This assay deals with human islets β-cells. Put plainly: glucose-stimulated insulin secretion and insulin content in palmitate-treated human islets. It counts as cell-based. The note with it: palmitic acid 0.3 mM, 48 hr, donors 1 and 2. The procedure:
Determination of glucose-stimulated insulin secretion (GSIS) and content: To determine acute insulin release in response to glucose stimulation, islets were washed with Krebs-Ringer bicarbonate buffer pH 7.4, containing 10 mM HEPES and 0.5% bovine serum albumin (KRBH), and pre-incubated for 2 hrs in the same buffer containing 3.3 mM glucose. The buffer was then discarded and replaced with fresh KRBH containing 3.3 mM glucose, and the islets incubated for 1 hour for basal insulin secretion, followed by additional 1 hour incubation in KRBH containing 16.7 mM glucose. The supernatants were collected, centrifuged at 900 rpm and insulin was determined by Rat or Human insulin radioimmunoassay (RIA) kits (Linco Research, St. Charles, MO) according to the Manufacturer's instructions. […] The acidic ethanol eluates were collected and the amount of insulin determined by ELISA.
ELISA Assay: Insulin was extracted from the intracellular storage granules in human islets cells using a lysis buffer (Ethanol-HCl). The extract was analysed by a specific ELISA (Mercodia) which is a solid phase two-site enzyme immunoassay based on the sandwich technique, in which two monoclonal antibodies are directed against separate antigenic determinants on the insulin molecule. […]

SMILES strings stand for the structures.

`CC[C@@H]1CC[C@H](C)N1C(=O)c1cccc(NS(=O)(=O)c2ccc(C)c(F)c2)c1` [Compound C13, N-(3-((2R,5S)-2-ethyl-5-methylpyrrolidine-1-carbonyl)phenyl)-3-fluoro-4-methylbenzenesulfonamide]: the restoring insulin content entry is “more potent than L-798106”. In addition, the “restoring glucose-stimulated insulin secretion” value (16.7 mM glucose) is “more potent than L-798106”.

For the origin of these results see patent US20240261296A1, “THERAPEUTIC MODALITIES FOR INHIBITING PANCREATIC BETA CELL IMPAIRMENT AND TREATING DIABETES” (Hadasit Medical Research Serices & Development Ltd., priority 2021, published 2024).
